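How tested: cells in 96-well plates exposed to compound for 48 hours at five concentrations. Abbreviation: GI50, concentration required for 50% inhibition of growth.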 The source made the active and inactive calls. Rule as the data show it: active = GI50 up to about 1.1 µM and inactive = higher.
Key:
Experiment in all cases: DTP human tumour cell line panel, 48 h
[1] = tested on: TK-10
[2] = tested on: NCI/ADR-RES
[3] = tested on: UACC-257
[4] = tested on: HCT-15
[5] = tested on: CAKI-1
[6] = tested on: NCI-H226
[7] = tested on: DU-145
[8] = tested on: MDA-N
[9] = tested on: SF-539
[10] = tested on: ACHN
[11] = tested on: HT-29
[12] = tested on: LOX IMVI
[13] = tested on: SNB-19
[14] = tested on: MOLT-4
[15] = tested on: OVCAR-4
[16] = tested on: SR
[17] = tested on: OVCAR-5
[18] = tested on: EKVX
[19] = tested on: HCC 2998
[20] = tested on: Malme-3M
[21] = tested on: SW-620
[22] = tested on: SK-MEL-28
[23] = tested on: UACC-62
[24] = tested on: A549
[25] = tested on: MDA-MB-231
[26] = tested on: M14
[27] = tested on: HOP-62
[28] = tested on: NCI-H23
[29] = tested on: OVCAR-3
[30] = tested on: IGROV-1
[31] = tested on: A498
[32] = tested on: SN12C
[33] = tested on: RPMI-8226
[34] = tested on: SNB-75
[35] = tested on: U-251
[36] = tested on: COLO 205
[37] = tested on: SK-OV-3
[38] = tested on: K562
[39] = tested on: NCI-H460
[40] = tested on: RXF 393
[41] = tested on: MDA-MB-435
[42] = tested on: HCT-116
[43] = tested on: SF-268
[44] = tested on: MCF7
[45] = tested on: 786-0
[46] = tested on: NCI-H522
[47] = tested on: SF-295
[48] = tested on: SK-MEL-5
[49] = tested on: T47D
[50] = tested on: OVCAR-8
[51] = tested on: KM12
[52] = tested on: Hs-578T
[53] = tested on: HL-60
[54] = tested on: SK-MEL-2
[55] = tested on: UO-31
[56] = tested on: CCRF-CEM
[57] = tested on: PC-3

With `CCOC(=O)/C(=C\c1c(C)[nH]c2ccccc12)P(=O)(OCC)OCC` the GI50 [1] was > 100 µM (inactive), the GI50 [2] was > 100 µM (inactive) and the GI50 [3] was > 100 µM (inactive). For the same compound, the GI50 [4] was over 100 µM, the GI50 [5] was > 100 µM (inactive) and the GI50 [6] was > 100 µM (inactive). The GI50 [7] was > 100 µM (inactive), the GI50 [8] was > 100 µM (inactive) and the GI50 [9] was > 100 µM (inactive). For the same compound, the GI50 [10] was > 100 µM (inactive), the GI50 [11] was > 100 µM (inactive) and the GI50 [12] was > 100 µM (inactive). The GI50 [13] was > 100 µM (inactive), the GI50 [14] was > 100 µM (inactive) and the GI50 [15] was > 100 µM (inactive). For the same compound, the GI50 [16] was > 100 µM (inactive), the GI50 [17] was > 100 µM (inactive) and the GI50 [18] was > 100 µM (inactive). The GI50 [19] was > 100 µM (inactive), the GI50 [20] was > 100 µM (inactive) and the GI50 [21] was > 100 µM (inactive). For the same compound, the GI50 [22] was > 100 µM (inactive), the GI50 [23] was > 100 µM (inactive) and the GI50 [24] was > 100 µM (inactive). The GI50 [25] was > 100 µM (inactive), the GI50 [26] was > 100 µM (inactive) and the GI50 [27] was > 100 µM (inactive). The GI50 [28] was > 100 µM (inactive), the GI50 [29] was > 100 µM (inactive) and the GI50 [30] was > 100 µM (inactive). The GI50 [31] was > 100 µM (inactive), the GI50 [32] was > 100 µM (inactive) and the GI50 [33] was > 100 µM (inactive). The GI50 [34] was > 100 µM (inactive), the GI50 [35] was > 100 µM (inactive) and the GI50 [36] was > 100 µM (inactive). The GI50 [37] was > 100 µM (inactive), the GI50 [38] was > 100 µM (inactive) and the GI50 [39] was > 100 µM (inactive). For the same compound, the GI50 [40] was > 100 µM (inactive), the GI50 [41] was > 100 µM (inactive) and the GI50 [42] was > 100 µM (inactive). The GI50 [43] was > 100 µM (inactive), the GI50 [44] was > 100 µM (inactive) and the GI50 [45] was > 100 µM (inactive). For the same compound, the GI50 [46] was > 100 µM (inactive), the GI50 [47] was > 100 µM (inactive) and the GI50 [48] was > 100 µM (inactive). For the same compound, the GI50 [49] was > 100 µM (inactive), the GI50 [50] was > 100 µM (inactive) and the GI50 [51] was > 100 µM (inactive). For the same compound, the GI50 [52] was > 100 µM (inactive).

`O=C(CC(C(=O)c1ccc(F)cc1)c1ccsc1)c1cccs1` (stereo not given) was tested, and the GI50 [1] was > 100 µM (inactive), the GI50 [2] was 96.4 µM (inactive) and the GI50 [3] was 70.3 µM (inactive). The GI50 [4] was 86.9 µM, the GI50 [5] was > 100 µM (inactive) and the GI50 [6] was 58.1 µM (inactive). The GI50 [7] was > 100 µM (inactive), the GI50 [8] was 79.8 µM (inactive) and the GI50 [9] was > 100 µM (inactive). For the same compound, the GI50 [10] was > 100 µM (inactive), the GI50 [11] was 59.2 µM (inactive) and the GI50 [13] was > 100 µM (inactive). For the same compound, the GI50 [14] was 29.6 µM (inactive), the GI50 [15] was 94.8 µM (inactive) and the GI50 [16] was 39.4 µM (inactive). The GI50 [17] was > 100 µM (inactive), the GI50 [18] was 68.9 µM (inactive) and the GI50 [19] was > 100 µM (inactive). The GI50 [20] was 36 µM (inactive), the GI50 [21] was > 100 µM (inactive) and the GI50 [53] was 55.2 µM (inactive). For the same compound, the GI50 [22] was > 100 µM (inactive), the GI50 [23] was > 100 µM (inactive) and the GI50 [24] was 74.8 µM (inactive). For the same compound, the GI50 [54] was > 100 µM (inactive), the GI50 [25] was > 100 µM (inactive) and the GI50 [26] was > 100 µM (inactive). The GI50 [27] was > 100 µM (inactive), the GI50 [28] was 32.7 µM (inactive) and the GI50 [30] was > 100 µM (inactive). For the same compound, the GI50 [31] was > 100 µM (inactive), the GI50 [32] was > 100 µM (inactive) and the GI50 [33] was 37.6 µM (inactive). For the same compound, the GI50 [34] was 94 µM (inactive), the GI50 [55] was 25.2 µM (inactive) and the GI50 [35] was > 100 µM (inactive). The GI50 [36] was > 100 µM (inactive), the GI50 [37] was > 100 µM (inactive) and the GI50 [38] was > 100 µM (inactive). For the same compound, the GI50 [39] was 69.7 µM (inactive), the GI50 [41] was > 100 µM (inactive) and the GI50 [42] was 60.5 µM (inactive). The GI50 [43] was > 100 µM (inactive), the GI50 [56] was 68.9 µM (inactive) and the GI50 [44] was 82.2 µM (inactive). The GI50 [45] was > 100 µM (inactive), the GI50 [47] was 67.6 µM (inactive) and the GI50 [48] was 62.4 µM (inactive). For the same compound, the GI50 [49] was 26.7 µM (inactive), the GI50 [50] was > 100 µM (inactive) and the GI50 [57] was 57.9 µM (inactive). The GI50 [51] was 44.8 µM (inactive) and the GI50 [52] was > 100 µM (inactive).
